Experimental data published in EP2177533A1, “Multiple N-methylated cyclic hexapeptides for treatment of neurogenic inflammation” (TU München, priority 2008, dated 2010).
Marks after values point to notes of the source that are not given here.

Assays:
[1] = cited from earlier work
[2] = cited from earlier work; remark: listed apart in the source
[3] = test system: peripheral terminals of sensory nerves of the isolated rat trachea; experiment: Electrical field stimulation-induced CGRP release from sensory nerve terminals of the isolated rat trachea (RIA); conditions: 500 nM; for EFS-evoked increase in the outflow of CGRP: stimulated and post-stimulated fractions vs control; for CGRP release in % compared to the prestimulated fraction: total CGRP release in stimulated and poststimulated fractions together vs basal outflow, n=5, mean with spread
Experimental: (§1) • Figure 1 provides a graphical representation of the effect of some compounds of the present invention on electrical field stimulation (EFS; 40 V, 0.1 ms, 10 Hz for 120 s; 1200 pulses)-induced calcitonin gene-related (CGRP) release from sensory fibres of the isolated rat tracheae. Each column represents the mean±s.e.m. CGRP concentration measured in the incubation medium of the prestimulated, stimulated and poststimulated 8-minute fractions of n = 5 experiments (5 x 2 tracheae/group). Analogs were added to the incubation medium (500 nM) at the beginning of the second and third fractions. *P<0.05, **P<0.01, vs. respective fraction of the control experiment (Mann-Whitney U-test). • Figure 2 provides a graphical representation of the effect of small peptide somatostatin analogs on 1% mustard oil-induced acute neurogenic plasma protein extravasation in the dorsal skin of the rat paw. Each column represents the mean±s.e.m. Evans blue accumulation per g wet skin of n = 6-10 experiments. Analogs were injected i.p. (100 µg/kg) 10 min before the induction of the inflammation. *P<0.05 vs. solvent-treated control experiment (Mann-Whitney U-test).
The activities of the above described synthetic somatostatin analogs were determined by means of an in vitro pharmacological assay on the release of the sensory neuropeptide CGRP from the peripheral terminals of sensory nerves of the isolated rat trachea. This experimental model was established more than 10 years ago (Helyes et al. (1997) Br. J. Pharmacol. 121, 613-615; Szolcsányi et al. (1998) Br. J. Pharmacol. 123, 936-942; Szolcsányi et al. (1998) Br. J. Pharmacol. 125, 916-922; Helyes et al. (2004) Arthr. Rheum., 50, 1677-1685; Bölcskei et al. (2005) Pain 117, 368-376; Helyes et al. (2007) Am. J. Physiol. Lung Cell. Mol. Physiol. 292, L1173-81; Nemeth et al. (1998) Eur. J. Pharmacol, 347, 101-104.) and it represents a reliable and sensitive technique for the investigation of drug effects at the level of peripheral nerve endings. Electrical field stimulation parameters are used to induce CGRP release that is selective for capsaicin-sensitive afferents. Since CGRP is an important mediator of neurogenic inflammation, the effectiveness of compounds in decreasing its electrically-evoked release in vitro may be seen as an indicator for effectiveness to inhibit neurogenic inflammatory reactions in vivo.
Experiments were performed on male Wistar rats bred and kept in the Laboratory Animal Centre of the University of Pécs under standard pathogen free conditions at 24-25 °C and provided with standard rat chow and water ad libitum. The method has been described in detail elsewhere (Helyes et al. (1997) Br. J. Pharmacol. 121, 613-615; Nemeth et al. (1998) Eur. J. Pharmacol. 347, 101-104.). In brief, rats were exsanguinated in deep anesthesia (sodium thiopental, 50 mg/kg i.p.), then the whole trachea was removed and cleaned of fat and adhering connective tissues. Tracheae from two rats were placed into the same organ bath (1.8 ml) to achieve sufficient amount of peptide release and perfused (1 ml/min) with pH- (7.2) controlled oxygenized Krebs solution for 60 min (equilibration period) at 37 °C temperature. After discontinuation of the flow, the solution was changed three times for eight minutes to produce prestimulated, stimulated, poststimulated fractions. In the second 8-min period electrical field stimulation (EFS; 40 V, 0.1 ms, 10 Hz for 120 s; 1200 pulses) was performed to elicit neurotransmitter release. Concentration of CGRP was determined from 200 µL samples of the incubation medium by a selective and specific radioimmunoassay (RIA) technique as described previously in detail (Nemeth et al., 1996; Helyes et al., 1997; Nemeth et al., 1998; Nemeth et al., 1999). Peptide outflow was expressed as the released amount per wet tissue weight. Detection limit of the assay was 0.2 fmol/tube. […]

[4] = test system: 1% mustard oil-induced neurogenic plasma protein extravasation in the rat paw skin; type: in vivo; conditions: 100 µg/kg i.p., 10 min before induction of inflammation; rat hindpaw dorsal skin
Experimental: as §1, with “Analogs were injected i.p. (100 µg/kg) 10 min before the induction of the inflammation. *P<0.05 vs. solvent-treated control experiment (Mann-Whitney U-test).” left out
To confirm the findings of this in vitro study, a further in vivo activity test was performed: Compounds of the invention were examined on 1% mustard oil-induced neurogenic plasma protein extravasation in the rat paw skin.
Both hindlegs of the rats were acutely denervated (the sciatic and the saphenous nerves were cut 30 min before the induction of inflammation) under sodium pentobarbitone (Nembutal, 40 mg/kg i.p.) anaesthesia to avoid central reflexes. Acute neurogenic inflammation in the dorsal skin of the hindpaws was evoked by topical application of 1 % mustard oil dissolved in paraffin oil. Extravasation of plasma albumin was measured by the Evans blue leakage method. Evans blue (50 mg/kg) was injected i.v. and neurogenic inflammation was induced 10 min later. Rats were killed by exsanguination 20 min after mustard oil application. […] The amount of the accumulated Evans blue, which quantitatively correlates with the intensity of plasma extravasation, was expressed as µg dye/g wet tissue (Helyes et al., 1997; Helyes et al., 2001). […]

[5] = cited from earlier work; remark: listed apart in the source

Molecule | bioavailability after oral administration [1] | stability in the blood and in the gastrointestinal tract [2] | CGRP outflow in the poststimulated fraction ([3]; poststimulated fraction) | EFS-evoked increase in the outflow of CGRP [3] | inhibitory action on CGRP outflow in the stimulated period ([3]; stimulated fraction, EFS 1200 pulses) | CGRP release in % compared to the prestimulated fraction [3] | µg Evans blue/g wet tissue (mean±s.e.m.) [4] | half life in serum [5] [min]
CC(C)[C@@H]1NC(=O)[C@H](CCCCN)NC(=O)[C@@H](Cc2c[nH]c3ccccc23)NC(=O)[C@H](Cc2ccc(O)cc2)NC(=O)[C@H](C)N(C)C(=O)[C@H](Cc2ccccc2)NC1=O [MK-678-0, c(-MeAYwKVF-)] | 1-3% | quite stable | – | – | – | – | – | –
CC(C)[C@@H]1NC(=O)[C@H](CCCCN)N(C)C(=O)[C@@H](Cc2c[nH]c3ccccc23)N(C)C(=O)[C@H](Cc2ccc(O)cc2)NC(=O)[C@H](C)N(C)C(=O)[C@H](Cc2ccccc2)N(C)C1=O [MK-678-1, cyclo(-MeAla-Tyr-D-MeTrp-MeLys-Val-MePhe-)] | – | – | completely abolished | significantly inhibited | about 70% | 99,58 ± 39,89** % | 90.06±10.4* µg Evans blue/g wet tissue | –
CC(C)[C@@H]1NC(=O)[C@H](CCCCN)N(C)C(=O)[C@@H](Cc2c[nH]c3ccccc23)N(C)C(=O)[C@H](Cc2ccc(O)cc2)NC(=O)[C@H](C)N(C)C(=O)[C@H](Cc2ccccc2)NC1=O [MK-678-2, cyclo(-MeAla-Tyr-D-MeTrp-MeLys-Val-Phe-)] | – | – | – | significantly inhibited | – | 153,12 ± 29,72* % | 119.92±32.7 µg Evans blue/g wet tissue | –
CC(C)[C@@H]1NC(=O)[C@H](CCCCN)N(C)C(=O)[C@@H](Cc2c[nH]c3ccccc23)NC(=O)[C@H](Cc2ccc(O)cc2)NC(=O)[C@H](C)N(C)C(=O)[C@H](Cc2ccccc2)NC1=O [MK-678-3, cyclo(-MeAla-Tyr-D-Trp-MeLys-Val-Phe-)] | – | – | – | significantly inhibited | – | 181,57 ± 54,17* % | 127.13±23.0 µg Evans blue/g wet tissue | –
Somatostatin | – | – | – | – | – | – | – | < 3
